Like-named read-outs stand apart in the source and are kept apart here.
Assays:
PDE4Bcat = biological target: T1, PDE4Bcat (Homo sapiens, UniProt Q07343); assay: Inhibition of phosphodiesterase activity, [3H]-cAMP hydrolysis, recombinant PDE4Bcat; type: biochemical; conditions: cAMP 2 μmol/L, read-out: IC50(μmol/L) PDE4
T1 construct: catalytic domain (indicated as “cat,” hereinafter), PDE4Bcat; made in house; host or cells: Sf9 insect cells (baculovirus, Bac-to-Bac)
Experimental: (§1) RT-PCR was performed to isolate cDNA fragments of PDE3A catalytic domain (indicated as “cat,” hereinafter), PDE4Bcat, PDE5Acat and PDE10A1 from human RNA. Using Gateway system (Invitrogen) and Bac-to-Bac (registered trademark) Baculovirus Expression system (Invitrogen), the isolated cDNA fragments were transfected into Sf9 insect cells for expression of the PDE proteins. The recombinant PDE3Acat, PDE4Bcat, PDE5Acat and PDE10A1 proteins were isolated from culture supernatant or cell extracts of Sf9 cells expressed high levels of these proteins by ion-exchange chromatography and used for the following experiments.
(§2) 4 mmol/L solution of each test compound was serially diluted 4-fold with 15% DMSO solution to prepare the solutions with concentrations of 15 nmol/L to 4 mmol/L (final concentrations=1.5 nmol/L-400 μmol/L). 10 μL of each test compound solution was added to each well of 96 plate with 10 μL of [^3H]-cAMP or [^3H]-cGMP solution, diluted with a buffer (40 mmol/L Tris-HCl (pH 7.4), 10 mmol/L MgCl2) to the concentration shown in Table 20 and 40 μL of each of the human recombinant PDE proteins in units shown in Table 20. The plate was incubated at 30° C. for 20 min, and then at 65° C. for 2 min. Subsequently, 25 μL of 1 mg/mL 5′-nucleotidase (Crotalus atrox venom, Sigma) was added to each well and the plate was incubated at 30° C. for 10 min. 200 μL of Dowex solution (300 mg/mL Dowex 1×8-400 (Sigma Aldrich), 33% ethanol) was then added to each well and the plate was shaken at 4° C. for 20 min. Subsequently, 200 μL of MicroScint 20 (Packard) was added to each well and the radioactivity of each sample was measured by a scintillation counter (Topcount, Packard) IC50 was calculated by GraphPad Prism v3.03 (GraphPad Software).

[1] = test system: histamine-induced bronchoconstriction; assay: Histamine-induced bronchoconstriction in guinea pigs; type: in vivo, guinea pig; conditions: Cavia porcellus, iv, 0.5 min, 30 seconds after administration, histamine 12.5 μg/kg i.v.; for inhibition in vivo at 1 mg/kg: test compound 1 mg/kg i.v.; for inhibition in vivo at 0.1 mg/kg: values in brackets: test compound 0.1 mg/kg, i.v.
Experimental: Guinea pigs were anesthetized with pentobarbital (30 mg/kg, i.p.). A cannula for IV administeration, a cannula for collecting blood and measurement of blood pressure and a trachea cannula were inserted into the left exterior jugular vein, right interior carotid artery and trachea, respectively. The animals were placed under artificial respiration at 60 times/min and 10 mL/kg/stroke. The airflow through the branch of the tracheal cannula was measured by a bronchospasm transducer (Ugo-Basile) and recorded on a computer via Power Lab (ADInstruments Japan). The animals were immobilized with gallamine (10 mg/kg, i.v.), then administered histamine at 10-minute intervals (12.5 μg/kg, i.v.). […] To examine the inhibitory activity of test compound, the histamine-induced bronchoconstriction was measured after 30 seconds of drug administration. The bronchoconstriction was recorded as the change of the airflow: The results were shown by percentages of the maximum histamine-induced bronchoconstriction. Each test compound was prepared as a 10 mg/mL solution in DMSO. Gallamine was prepared as a 10 mg/mL solution in physiological saline. Histamine was prepared as a 1 mg/mL solution in physiological saline, which was diluted with physiological saline to 62.5 μg/mL for use.

PDE10A1 = biological target: T2, PDE10A1 (Homo sapiens, UniProt Q9Y233); assay: Inhibition of phosphodiesterase activity, [3H]-cAMP hydrolysis, recombinant PDE10A1; type: biochemical; conditions: human recombinant PDE10A1, cAMP 0.2 μmol/L; read-out: IC50(μmol/L) PDE10
T2 construct: made in house; host or cells: Sf9 insect cells (baculovirus, Bac-to-Bac)
T2 sequence (Q9Y233 1-779 isoform Q9Y233-1): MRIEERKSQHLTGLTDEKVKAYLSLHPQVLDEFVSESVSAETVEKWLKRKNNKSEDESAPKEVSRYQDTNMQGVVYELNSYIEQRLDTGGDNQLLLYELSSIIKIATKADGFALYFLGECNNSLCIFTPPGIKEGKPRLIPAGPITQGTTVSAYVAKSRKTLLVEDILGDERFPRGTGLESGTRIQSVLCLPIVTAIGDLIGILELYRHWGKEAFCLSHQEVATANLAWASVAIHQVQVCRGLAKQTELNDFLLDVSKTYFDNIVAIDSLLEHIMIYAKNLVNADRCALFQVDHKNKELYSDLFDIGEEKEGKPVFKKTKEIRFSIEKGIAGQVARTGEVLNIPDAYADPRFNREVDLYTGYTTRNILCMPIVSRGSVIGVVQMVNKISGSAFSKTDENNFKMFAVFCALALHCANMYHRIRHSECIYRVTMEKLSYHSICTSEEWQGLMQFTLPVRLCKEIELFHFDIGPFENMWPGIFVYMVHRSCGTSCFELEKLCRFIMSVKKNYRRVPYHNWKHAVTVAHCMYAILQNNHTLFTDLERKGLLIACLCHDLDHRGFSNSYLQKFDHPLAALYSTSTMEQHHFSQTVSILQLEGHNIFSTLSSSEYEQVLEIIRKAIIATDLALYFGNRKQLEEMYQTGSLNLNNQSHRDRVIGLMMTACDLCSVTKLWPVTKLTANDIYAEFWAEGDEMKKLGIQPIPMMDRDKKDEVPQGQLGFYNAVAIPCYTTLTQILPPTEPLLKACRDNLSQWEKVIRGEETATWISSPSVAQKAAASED
Experimental: as §1, §2

[2] = biological target: T3, PDE3A catalytic domain (PDE3Acat) (Homo sapiens, UniProt Q14432); assay: Inhibition of phosphodiesterase activity, [3H]-cAMP hydrolysis, recombinant PDE3Acat; type: biochemical; conditions: cAMP 2 μmol/L
T3 construct: cDNA fragments of PDE3A catalytic domain (indicated as “cat,” hereinafter); made in house; host or cells: Sf9 insect cells (baculovirus, Bac-to-Bac)
T3 sequence (Q14432 674-1093 limits assumed): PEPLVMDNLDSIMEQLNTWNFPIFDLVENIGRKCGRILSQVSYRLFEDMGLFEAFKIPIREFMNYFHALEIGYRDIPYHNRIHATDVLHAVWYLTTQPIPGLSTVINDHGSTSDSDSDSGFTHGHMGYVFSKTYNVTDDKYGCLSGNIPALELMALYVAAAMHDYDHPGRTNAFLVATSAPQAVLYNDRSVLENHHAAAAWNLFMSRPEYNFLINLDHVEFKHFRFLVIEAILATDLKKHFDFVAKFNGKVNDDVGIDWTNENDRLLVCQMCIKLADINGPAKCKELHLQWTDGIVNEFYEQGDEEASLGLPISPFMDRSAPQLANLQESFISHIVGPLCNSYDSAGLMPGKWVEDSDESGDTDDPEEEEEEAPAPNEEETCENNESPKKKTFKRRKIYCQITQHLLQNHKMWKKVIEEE
Experimental: as §1, §2

PDE5Acat = PDE5Acat (Homo sapiens, UniProt O76074); assay: Inhibition of phosphodiesterase activity, [3H]-cGMP hydrolysis, recombinant PDE5Acat; type: biochemical; conditions: cGMP 2 μmol/L, read-out: IC50(μmol/L) PDE5
Experimental: as §1, §2

[3] = test system: isolated guinea pig tracheal smooth muscles; assay: Relaxant effect on histamine-induced contraction of isolated guinea pig tracheal smooth muscles; conditions: Cavia porcellus; histamine 10^-5 mol/L contraction, relaxation as % of maximum response to papaverine 10^-4 mol/L; read-out: IC50(μmol/L), concentration required to 50% relaxation
Experimental: Guinea pigs were exsanguinated and the trachea was immediately isolated and cut into 2 to 3 cartilage ring segments to prepare tracheal ring preparations. The tracheal rings were suspended in 10 mL of Tyrode's solution bubbled with a gaseous mixture of 95% O2+5% CO2 at 37° C. The composition of the Tyrode's solution (mM) was as follows: NaCl 136.9, KCl 2.7, CaCl2 1.8, MgCl2 1.0, NaH2PO4 0.4, NaHCO3 11.9 and Gucose 5.6. The contractile response was measured by an isometric transducer (UM-203, KISHIMOTO) and recorded on a recorder ([…] SERVOCORDER SR6221). After about 1 hour incubation with 1.5 g of resting tention, histamine (10^−5 mol/L) was added to induce the contractile response. After confirming the response, the preparations were washed with Tyrode's solution (10 mL×3). Then indomethacin (10^−5 mol/L) was applied and the preparations were equilibrated for at least 30 min under 1.5 g tension. Subsequently, histamine (10^−5 mol/L) was applied. After the contraction reached a steady state, each compound was added in a cumulative manner (10^−8 mol/L-3×10^−5 mol/L). Each compound was prepared as a 10^−1 mol/L solution in DMSO, which was diluted with distilled water for use. After addition of test compounds, papaverine (10^−4 mol/L) was added to determine the maximum relaxation of the preparation. Relaxant response of test compounds were expressed as a percentage of the maximum response to papaverine. IC50 was defined as a concentration of the compound required to 50% relaxation. DMSO was used as a control.

[4] = human recombinant PDE3Acat, read-out: IC50(μmol/L) PDE3
[5] = IC50(μmol/L) PDE3, human recombinant PDE3Acat

T1 sequence (Q07343 330-659 limits assumed): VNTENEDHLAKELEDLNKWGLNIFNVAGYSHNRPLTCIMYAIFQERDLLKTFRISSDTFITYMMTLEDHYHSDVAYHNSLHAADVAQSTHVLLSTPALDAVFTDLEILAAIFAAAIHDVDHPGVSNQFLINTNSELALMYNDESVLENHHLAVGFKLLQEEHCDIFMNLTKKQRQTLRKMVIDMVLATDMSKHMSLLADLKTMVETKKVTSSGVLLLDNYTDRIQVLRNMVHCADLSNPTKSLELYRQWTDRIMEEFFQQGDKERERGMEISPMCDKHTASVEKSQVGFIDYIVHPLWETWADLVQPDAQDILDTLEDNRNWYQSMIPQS

| Compound | IC50 (PDE4Bcat) [µmol/L] | inhibition in vivo at 1 mg/kg [1] [%] | IC50 (PDE10A1) [µmol/L] | IC50 [2, 4] [µmol/L] | IC50 (PDE5Acat) [µmol/L] | IC50 [3] [µmol/L] | inhibition in vivo at 0.1 mg/kg [1] [%] | IC50 [2, 5] [µmol/L] |
| --- | --- | --- | --- | --- | --- | --- | --- | --- |
| CCc1cc2c(C3=NNC(=O)CC3C)cc(Cl)cn2n1 (single isomer, unassigned; (+)) [Example 313, (+)-6-(6-chloro-2-ethyl-pyrazolo[1,5-a]pyridine-4-yl)-5-methyl-4,5-dihydro-3-(2H)-pyridazinone] | 1 to 10 | ≥ 90 | 0.1 to 1 | 1 to 10 | > 10 | 0.5 | – | – |
| CCc1cc2c(C3=NNC(=O)CC3C)ccc(OC)n2n1 (single isomer, unassigned; (+)) [Example 315, (+)-6-(2-ethyl-7-methoxy-pyrazolo[1,5-a]pyridine-4-yl)-5-methyl-4,5-dihydro-3-(2H)-pyridazinone] | 1 to 10 | – | 1 to 10 | – | > 10 | – | ≥ 90 | 1 to 10 |
| COc1ccc(C2=NNC(=O)CC2C)c2cc(C(F)(F)F)nn12 (single isomer, unassigned; (+)) [Example 317, (+)-6-(7-methoxy-2-trifluoromethyl-pyrazolo[1,5-a]pyridine-4-yl)-5-methyl-4,5-dihydro-3-(2H)-pyridazinone] | < 1 | – | 1 to 10 | 0.1 to 1 | > 10 | 0.127 | ≥ 90 | – |
| CCc1cc2c(C3=NNC(=O)CC3C)cc(Cl)cn2n1 (single isomer, unassigned; (-)) [Example 314, (−)-6-(6-chloro-2-ethyl-pyrazolo[1,5-a]pyridine-4-yl)-5-methyl-4,5-dihydro-3-(2H)-pyridazinone] | 0.1 to 1 | – | > 10 | > 10 | > 10 | – | 80 to 90 | – |
| CCc1cc2c(C3=NNC(=O)CC3C)ccc(OC)n2n1 (single isomer, unassigned; (-)) [Example 316, (−)-6-(2-ethyl-7-methoxy-pyrazolo[1,5-a]pyridine-4-yl)-5-methyl-4,5-dihydro-3-(2H)-pyridazinone] | < 1 | – | > 10 | – | > 10 | 0.676 | – | > 10 |
| CCc1cc2c(C3=NNC(=O)CC3)cc(Cl)cn2n1 [Example 202] | > 10 | ≥ 90 | 1 to 10 | > 10 | > 10 | – | – | – |
| CCc1cc2c(C3=NNC(=O)CC3)ccc(OC)n2n1 [Example 210, 6-(2-ethyl-7-methoxy-pyrazolo[1,5-a]pyridine-4-yl)-4,5-dihydro-3-(2H)-pyridazinone] | 1 to 10 | ≥ 90 | > 10 | > 10 | > 10 | – | – | – |
| CCc1nn2c([S+](C)[O-])ccc(C3=NNC(=O)CC3C)c2c1O (centres unmarked) [Example 250] | 0.1 to 1 | – | – | 1 to 10 | – | – | ≥ 90 | – |
| COC(=O)c1c(C(C)C)nn2c(OC)ccc(-c3ccc(=O)n(Cc4ccccc4)n3)c12 [Example 266, 2-benzyl-6-(7-methoxy-3-methoxycarbonyl-2-isopropyl-pyrazolo[1,5-a]pyridine-4-yl)-3-(2H)-pyridazinone] | 1 to 10 | – | > 10 | > 10 | > 10 | – | – | – |
| COc1ccc(-c2ccc(=O)n(Cc3ccccc3)n2)c2c(C(=O)O)c(C(C)C)nn12 [Example 267, 2-benzyl-6-(3-carboxy-7-methoxy-2-isopropyl-pyrazolo[1,5-a]pyridine-4-yl)-3-(2H)-pyridazinone] | 1 to 10 | – | > 10 | > 10 | > 10 | – | – | – |
| COc1ccc(-c2ccc(=O)n(Cc3ccccc3)n2)c2cc(C(C)C)nn12 [Example 272] | – | – | 0.1 to 1 | – | – | – | – | – |
| COc1ccc(-c2ccc(=O)n(Cc3cccnc3)n2)c2cc(C(C)C)nn12 [Example 273] | 1 to 10 | – | 1 to 10 | > 10 | > 10 | – | – | – |
| COc1ccc(-c2cc(C)c(=O)[nH]n2)c2cc(C(C)C)nn12 [Example 278, 6-(7-methoxy-2-isopropyl-pyrazolo[1,5-a]pyridine-4-yl)-4-methyl-3-(2H)-pyridazinone] | 0.1 to 1 | – | > 10 | > 10 | > 10 | – | – | – |
| COc1ccc(C2=NNC(=O)CC2C)c2cc(C(C)C)nn12 (centres unmarked) [Example 282] | 0.1 to 1 | ≥ 90 | 1 to 10 | 1 to 10 | > 10 | – | – | – |
| COc1ccc(C2=NNC(=O)C(C)C2)c2cc(C(C)C)nn12 (centres unmarked) [Example 283] | 0.1 to 1 | – | > 10 | > 10 | > 10 | – | – | – |
| COc1ccc(C2=NN(Cc3ccccc3)C(=O)CC2)c2cc(C(C)C)nn12 [Example 284] | – | – | 1 to 10 | – | – | – | – | – |
| COc1ccc(C2=NN(Cc3cccnc3)C(=O)CC2)c2cc(C(C)C)nn12 [Example 285] | 1 to 10 | – | 1 to 10 | > 10 | > 10 | – | – | – |
| COc1ccc(-c2ccc(=O)[nH]n2)c2cc(C(F)(F)F)nn12 [Example 302, 6-(2-trifluoromethyl-7-methoxy-pyrazolo[1,5-a]pyridine-4-yl)-3-(2H)-pyridazinone] | 0.1 to 1 | – | – | 1 to 10 | – | – | ≥ 90 | – |
| CCc1cc2c(-c3ccc(=O)[nH]n3)ccc(OC)n2n1 [Example 306] | 1 to 10 | ≥ 90 | > 10 | 1 to 10 | > 10 | – | – | – |
| CCc1cc2c(C3=NN(Cc4cccnc4)C(=O)CC3C)cc(Cl)cn2n1 (centres unmarked) [Example 312, 6-(6-chloro-2-ethyl-pyrazolo[1,5-a]pyridine-4-yl)-4,5-dihydro-5-methyl-2-(pyridine-3-ylmethyl)-3-(2H)-pyridazinone] | 1 to 10 | – | > 10 | > 10 | > 10 | – | – | – |
